Source: the NIST ThermoML archive (doi:10.1016/j.jct.2014.06.006)
Numbers after ± are expanded uncertainties.

Test: activity coefficient (dimensionless); of the first substance listed, at infinite dilution; xn = mol fraction of the nth substance listed
Details: 298 K; 238 kPa; Liquid; Chromatography; x1 = 0

SMILES	activity coefficient
Cc1ccccc1C [1,2-dimethylbenzene] + CC(O)CO	26.3 ± 3.1
Cc1ccccc1C [1,2-dimethylbenzene] + COCCO	5 ± 0.3
Cc1cccc(C)c1 [1,3-dimethylbenzene] + CC(O)CO	28.4 ± 2.2
Cc1cccc(C)c1 [1,3-dimethylbenzene] + COCCO	5.2 ± 0.3
Cc1ccc(C)cc1 [1,4-dimethylbenzene] + CC(O)CO	26.7 ± 3.1
Cc1ccc(C)cc1 [1,4-dimethylbenzene] + COCCO	5.2 ± 0.3
C=CCCCCC=C [1,7-octadiene] + COCCO	10.6 ± 0.5
Cc1ccc(C(C)C)cc1 [1-(1-methylethyl)-4-methylbenzene] + COCCO	10 ± 0.5
C=CC1CC=CCC1 (stereo unspecified) [4-ethenylcyclohexene] + COCCO	8.6 ± 0.3
c1ccccc1 [benzene] + CC(O)CO	11.8 ± 1.1
c1ccccc1 [benzene] + COCCO	2.4 ± 0.4
Brc1ccccc1 [bromobenzene] + COCCO	3.5 ± 0.2
Clc1ccccc1 [chlorobenzene] + CC(O)CO	13.6 ± 1.1
Clc1ccccc1 [chlorobenzene] + COCCO	2.9 ± 0.4
C1CCCCC1 [cyclohexane] + COCCO	11.4 ± 0.7
C1=CCCCC1 [cyclohexene] + COCCO	7.4 ± 0.3
C1CCCCCCC1 [cyclooctane] + COCCO	20.1 ± 0.9
CCCCCCCCCC [decane] + COCCO	56.8 ± 2.2

SMILES	activity coefficient
CCc1ccccc1 [ethylbenzene] + CC(O)CO	26.2 ± 3.1
CCc1ccccc1 [ethylbenzene] + COCCO	4.9 ± 0.3
Fc1ccccc1 [fluorobenzene] + CC(O)CO	8.5 ± 0.5
Fc1ccccc1 [fluorobenzene] + COCCO	1.8 ± 0.2
CCCCCCC [heptane] + CC(O)CO	109 ± 30
CCCCCCC [heptane] + COCCO	22.4 ± 0.9
CCCCCC [hexane] + CC(O)CO	63 ± 20
CCCCCC [hexane] + COCCO	16.3 ± 0.8
CC1CCCCC1 [methylcyclohexane] + COCCO	14.7 ± 0.9
CC1CCCC1 [methylcyclopentane] + COCCO	11 ± 0.7
c1ccc2ccccc2c1 [naphthalene] + CC(O)CO	136 ± 21
c1ccc2ccccc2c1 [naphthalene] + COCCO	11 ± 2
CCCCCCCCC [nonane] + COCCO	41.4 ± 1.7
CCCCCCCC [octane] + CC(O)CO	150 ± 40
CCCCCCCC [octane] + COCCO	27.9 ± 1
Cc1ccccc1 [toluene] + CC(O)CO	17 ± 2.1
Cc1ccccc1 [toluene] + COCCO	3.6 ± 0.4
CCCCCCCCCCC [undecane] + COCCO	94.6 ± 3.7
